From PubChem BioAssay AID1963984 (Molecular Pharmacology Branch, DTP, NCI, 2024)

Tested on: 233499-124-R-J3-PDC spheroids with HUVEC/MSC, viability
Assay: Anticancer human tumor 233499-124-R-J3-PDC patient-derived colon adenocarcinoma cell line growth inhibition [PI3K]
Conditions: for viability, T/C: stronger effect = lower value
Summary of the method: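 Tumor cells were combined with HUVEC and MSCs into spheroids, then dosed with PI3K-inhibitor combinations over half-log ranges capped near clinical Cmax or 10 microM.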

[1] = curve of first compound, second compound 0.00316 µM
[2] = curve of first compound, second compound 0.01 µM
[3] = curve of first compound, second compound 0.0316 µM
[4] = curve of first compound, second compound 0.1 µM
[5] = curve of first compound, second compound 0.316 µM
[6] = curve of first compound, second compound 1 µM
[7] = second compound 0.00316 µM, first compound 0.0316 µM
[8] = second compound 0.00316 µM, first compound 0.1 µM
[9] = second compound 0.00316 µM, first compound 0.316 µM
[10] = second compound 0.00316 µM, first compound 1 µM
[11] = second compound 0.00316 µM, first compound 3.16 µM
[12] = second compound 0.00316 µM, first compound 10 µM
[13] = second compound 0.01 µM, first compound 0.0316 µM
[14] = second compound 0.01 µM, first compound 0.1 µM
[15] = second compound 0.01 µM, first compound 0.316 µM
[16] = second compound 0.01 µM, first compound 1 µM
[17] = second compound 0.01 µM, first compound 3.16 µM
[18] = second compound 0.01 µM, first compound 10 µM
[19] = second compound 0.0316 µM, first compound 0.0316 µM
[20] = second compound 0.0316 µM, first compound 0.1 µM
[21] = second compound 0.0316 µM, first compound 0.316 µM
[22] = second compound 0.0316 µM, first compound 1 µM
[23] = second compound 0.0316 µM, first compound 3.16 µM
[24] = second compound 0.0316 µM, first compound 10 µM
[25] = second compound 0.1 µM, first compound 0.0316 µM
[26] = second compound 0.1 µM, first compound 0.1 µM
[27] = second compound 0.1 µM, first compound 0.316 µM
[28] = second compound 0.1 µM, first compound 1 µM
[29] = second compound 0.1 µM, first compound 3.16 µM
[30] = second compound 0.1 µM, first compound 10 µM
[31] = second compound 0.316 µM, first compound 0.0316 µM
[32] = second compound 0.316 µM, first compound 0.1 µM
[33] = second compound 0.316 µM, first compound 0.316 µM
[34] = second compound 0.316 µM, first compound 1 µM
[35] = second compound 0.316 µM, first compound 3.16 µM
[36] = second compound 0.316 µM, first compound 10 µM
[37] = second compound 1 µM, first compound 0.0316 µM
[38] = second compound 1 µM, first compound 0.1 µM
[39] = second compound 1 µM, first compound 0.316 µM
[40] = second compound 1 µM, first compound 1 µM
[41] = second compound 1 µM, first compound 3.16 µM
[42] = second compound 1 µM, first compound 10 µM
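Note: spheroids exposed to agents for seven days before readout.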
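Throughout, for viability, T/C: percent viability relative to DMSO vehicle control taken as 100%.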

Work on `Cn1cnc2c(F)c(Nc3ccc(Br)cc3Cl)c(C(=O)NOCCO)cc21` + CC(Nc1ccc2c(c1)OCCn1cc(N3C(=O)OCC3C(F)F)nc1-2)C(N)=O yielded an IC50 [1] of 0.479 µM, an IC50 [2] of 0.541 µM and an IC50 [3] of 0.262 µM. For the same compound, the IC50 [4] was 0.2 µM, the IC50 [5] was 0.134 µM and the IC50 [6] was 0.0171 µM. The viability, T/C (second compound 0.00316 µM, first compound 0.00949 µM) was 85%, the viability, T/C (second compound 0.00316 µM, first compound 0.03 µM) was 80% and the viability, T/C (second compound 0.00316 µM, first compound 0.0949 µM) was 75.1%. The viability, T/C (second compound 0.00316 µM, first compound 0.3 µM) was 57%, the viability, T/C (second compound 0.00316 µM, first compound 0.949 µM) was 38.4% and the viability, T/C (second compound 0.00316 µM, first compound 3 µM) was 18.7%. The viability, T/C (second compound 0.01 µM, first compound 0.00949 µM) was 79.7%, the viability, T/C (second compound 0.01 µM, first compound 0.03 µM) was 85.1% and the viability, T/C (second compound 0.01 µM, first compound 0.0949 µM) was 80.3%. It also gave a viability, T/C (second compound 0.01 µM, first compound 0.3 µM) of 64.1%, a viability, T/C (second compound 0.01 µM, first compound 0.949 µM) of 36.4% and a viability, T/C (second compound 0.01 µM, first compound 3 µM) of 21.9%. It also gave a viability, T/C (second compound 0.0316 µM, first compound 0.00949 µM) of 80.4%, a viability, T/C (second compound 0.0316 µM, first compound 0.03 µM) of 90.6% and a viability, T/C (second compound 0.0316 µM, first compound 0.0949 µM) of 78.7%. For the same compound, the viability, T/C (second compound 0.0316 µM, first compound 0.3 µM) was 45.7%, the viability, T/C (second compound 0.0316 µM, first compound 0.949 µM) was 30.2% and the viability, T/C (second compound 0.0316 µM, first compound 3 µM) was 23.8%. For the same compound, the viability, T/C (second compound 0.1 µM, first compound 0.00949 µM) was 77.6%, the viability, T/C (second compound 0.1 µM, first compound 0.03 µM) was 60.8% and the viability, T/C (second compound 0.1 µM, first compound 0.0949 µM) was 62.1%. It also gave a viability, T/C (second compound 0.1 µM, first compound 0.3 µM) of 47.4%, a viability, T/C (second compound 0.1 µM, first compound 0.949 µM) of 22.9% and a viability, T/C (second compound 0.1 µM, first compound 3 µM) of 16.8%. For the same compound, the viability, T/C (second compound 0.316 µM, first compound 0.00949 µM) was 70.2%, the viability, T/C (second compound 0.316 µM, first compound 0.03 µM) was 82.6% and the viability, T/C (second compound 0.316 µM, first compound 0.0949 µM) was 53.6%. It also gave a viability, T/C (second compound 0.316 µM, first compound 0.3 µM) of 37.1%, a viability, T/C (second compound 0.316 µM, first compound 0.949 µM) of 29.2% and a viability, T/C (second compound 0.316 µM, first compound 3 µM) of 24.2%. The viability, T/C (second compound 1 µM, first compound 0.00949 µM) was 57%, the viability, T/C (second compound 1 µM, first compound 0.03 µM) was 42% and the viability, T/C (second compound 1 µM, first compound 0.0949 µM) was 38.2%. For the same compound, the viability, T/C (second compound 1 µM, first compound 0.3 µM) was 19.8%, the viability, T/C (second compound 1 µM, first compound 0.949 µM) was 28.7% and the viability, T/C (second compound 1 µM, first compound 3 µM) was 12.7%.

For `CC(=O)c1c(C)c2cnc(Nc3ccc(N4CCNCC4)cn3)nc2n(C2CCCC2)c1=O`, the viability, T/C (compound 0.000316 µM) was 98.4% [middle of 4 runs], the viability, T/C (compound 0.001 µM) was 98.5% [middle of 4 runs] and the viability, T/C (compound 0.00316 µM) was 85.1% [middle of 4 runs]. The viability, T/C (compound 0.01 µM) was 88.2% [middle of 4 runs], the viability, T/C (compound 0.1 µM) was 91.2% [middle of 4 runs] and the IC50 (curve of compound) was > 0.1 µM.

In the case of `C=CC(=O)N1CCN(c2nc(=O)n(-c3c(C)ccnc3C(C)C)c3nc(-c4c(O)cccc4F)c(F)cc23)C(C)C1` (configuration not stated), the viability, T/C (compound 0.0316 µM) is reported as 91.7% [middle of 4 runs], the viability, T/C (compound 0.1 µM) is reported as 99.3% [middle of 4 runs] and the viability, T/C (compound 1 µM) is reported as 113% [middle of 4 runs]. For the same compound, the viability, T/C (compound 3.16 µM) was 99.9% [middle of 4 runs] and the IC50 (curve of compound) was > 10 µM.

For `Cn1nccc1Nc1nccc(-c2ccn(C(CO)c3ccc(Cl)c(F)c3)c(=O)c2)n1` (configuration not stated) + CC(Nc1ccc2c(c1)OCCn1cc(N3C(=O)OCC3C(F)F)nc1-2)C(N)=O, the IC50 [1] was > 10 µM, the IC50 [2] was 9.87 µM and the IC50 [3] was > 10 µM. The IC50 [4] was > 10 µM, the IC50 [5] was 0.694 µM and the IC50 [6] was 0.211 µM. For the same compound, the viability, T/C [7] was 81.3%, the viability, T/C [8] was 95.2% and the viability, T/C [9] was 80.5%. For the same compound, the viability, T/C [10] was 104%, the viability, T/C [11] was 52.7% and the viability, T/C [12] was 58.2%. The viability, T/C [13] was 83%, the viability, T/C [14] was 81.6% and the viability, T/C [15] was 74.3%. For the same compound, the viability, T/C [16] was 74.9%, the viability, T/C [17] was 59.5% and the viability, T/C [18] was 50.2%. For the same compound, the viability, T/C [19] was 95.6%, the viability, T/C [20] was 100% and the viability, T/C [21] was 71.8%. The viability, T/C [22] was 55.7%, the viability, T/C [23] was 79.3% and the viability, T/C [24] was 66%. For the same compound, the viability, T/C [25] was 76.3%, the viability, T/C [26] was 77.3% and the viability, T/C [27] was 82.3%. It also gave a viability, T/C [28] of 63.2%, a viability, T/C [29] of 53.1% and a viability, T/C [30] of 48.1%. The viability, T/C [31] was 78.3%, the viability, T/C [32] was 73% and the viability, T/C [33] was 58.6%. The viability, T/C [34] was 45.9%, the viability, T/C [35] was 39.6% and the viability, T/C [36] was 36.3%. For the same compound, the viability, T/C [37] was 55.8%, the viability, T/C [38] was 58.6% and the viability, T/C [39] was 43.5%. It also gave a viability, T/C [40] of 41.6%, a viability, T/C [41] of 38.9% and a viability, T/C [42] of 27.8%.

For `Cn1ncc(Cl)c1-c1cc(C(=O)NC(CN)Cc2cccc(F)c2)sc1Cl` (configuration not stated) + COc1c(OCCCN2CCOCC2)ccc2c3n(c(=NC(=O)c4cnc(N)nc4)nc12)CCN3, the IC50 [1] was 4.1 µM, the IC50 [2] was 2.78 µM and the IC50 [3] was 1.64 µM. The IC50 [4] was 0.516 µM, the IC50 [5] was < 0.0316 µM and the IC50 [6] was < 0.0316 µM. The viability, T/C [7] was 70.1%, the viability, T/C [8] was 88.1% and the viability, T/C [9] was 83.2%. For the same compound, the viability, T/C [10] was 83.7%, the viability, T/C [11] was 58.9% and the viability, T/C [12] was 19.6%. It also gave a viability, T/C [13] of 81.6%, a viability, T/C [14] of 97.4% and a viability, T/C [15] of 98.8%. For the same compound, the viability, T/C [16] was 77.8%, the viability, T/C [17] was 46.8% and the viability, T/C [18] was 46.1%. It also gave a viability, T/C [19] of 81.9%, a viability, T/C [20] of 80.1% and a viability, T/C [21] of 78.8%. It also gave a viability, T/C [22] of 59.6%, a viability, T/C [23] of 36.3% and a viability, T/C [24] of 20.5%. The viability, T/C [25] was 61.7%, the viability, T/C [26] was 62.8% and the viability, T/C [27] was 56.9%. It also gave a viability, T/C [28] of 37.7%, a viability, T/C [29] of 36.7% and a viability, T/C [30] of 16.1%. The viability, T/C [31] was 21.4%, the viability, T/C [32] was 42.5% and the viability, T/C [33] was 19.2%. It also gave a viability, T/C [34] of 34.3%, a viability, T/C [35] of 31.9% and a viability, T/C [36] of 11.3%. The viability, T/C [37] was 8.63%, the viability, T/C [38] was 9.16% and the viability, T/C [39] was 15.4%. For the same compound, the viability, T/C [40] was 10.9%, the viability, T/C [41] was 7.03% and the viability, T/C [42] was 1.23%.
